Results: patent US6057371A, “Sigma receptor ligands and the use thereof” (Virginia Commonwealth University, priority 1992, dated 2000)
Where two headings read alike, the source gives them in different places.

Columns and labels:
5-HT1A receptor = target: T1, 5-HT1A receptor (Rattus norvegicus, UniProt P19327); assay: biochemical; assay type: binding; parameters: 47: 529-540 (1986); from tissue; host or cells: brain tissue, inferred from the cited method (rat frontal cortex)
T1 sequence (P19327 1-422): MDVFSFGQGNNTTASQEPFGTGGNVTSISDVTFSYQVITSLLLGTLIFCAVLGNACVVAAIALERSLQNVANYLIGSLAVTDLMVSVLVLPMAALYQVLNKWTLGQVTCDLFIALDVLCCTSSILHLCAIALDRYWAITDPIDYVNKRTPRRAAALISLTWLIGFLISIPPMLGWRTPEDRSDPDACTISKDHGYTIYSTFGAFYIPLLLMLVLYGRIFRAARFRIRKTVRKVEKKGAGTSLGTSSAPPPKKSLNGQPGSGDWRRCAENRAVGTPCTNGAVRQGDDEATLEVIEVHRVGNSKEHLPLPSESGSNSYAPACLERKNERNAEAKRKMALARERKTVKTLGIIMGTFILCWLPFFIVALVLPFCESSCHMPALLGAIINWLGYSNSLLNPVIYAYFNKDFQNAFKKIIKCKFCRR
Method: Further sigma receptor binding assays against [^3 H]DTG and 5HT-1A binding assays were conducted according to the procedure outlined in the previous examples.

PCP receptor = PCP receptor binding, ^3 H-MK-801; parameters: species or system rat; details: Table 4
Method: PCP receptor binding assays against ^3 H-MK-801 were conducted as described by Keana et al., Proc. Natl. Acad. Sci (USA) 86: 5631-5635 (1989); Keana et al., Life Sciences 43: 965-973 (1988). For (+) ^3 H-MK-801 binding, 1 nM of radioligand was incubated with about 100 ug of thawed rat brain membrane protein for 4 hr at room temperature. The assays were carried out in 5 mM Tris/acetate and were stopped by rapid filtration through Whatman GF/B or Schleicher & Schuell no. 32 glass fiber filters (presoaked in 0.05% polyethylenamine).

sigma receptor = assay: Sigma receptor binding, [^3 H]DTG, brain membranes (both sigma-1 and sigma-2 sites); parameters: species or system guinea pig; details: for IC50: Table 6, [^3 H]DTG
sigma-1 binding site = target: T2, sigma-1 binding site (Cavia porcellus, UniProt Q60492); assay: biochemical; parameters: species or system guinea pig
T2 construct: Guinea pig whole membrane preparations (P2 microsomal fraction); from tissue; host or cells: guinea pig membranes (P2 microsomal fraction), as described by Weber et al; brain inferred from the sister test b489
Method: [^3 H]DTG was purchased from DuPont/NEN.
The radioactivity on the filters was determined by scintillation spectrometry at an efficiency of about 50% using Cytoscint (ICN) scintillation fluid.

sigma-2 binding site = target: T3, sigma-2 binding site (Cavia porcellus, UniProt H0V073); assay: biochemical; parameters: species or system guinea pig; details: for Ki: Table 10, read-out: SIGMA-2 KI vs. 3H-DTG + PENTAZOCINE MEAN
T3 construct: Guinea pig whole membrane preparations (P2 microsomal fraction); from tissue; host or cells: guinea pig membranes (P2 microsomal fraction), as described by Weber et al; brain inferred from the sister test b489
T3 sequence (H0V073 1-176): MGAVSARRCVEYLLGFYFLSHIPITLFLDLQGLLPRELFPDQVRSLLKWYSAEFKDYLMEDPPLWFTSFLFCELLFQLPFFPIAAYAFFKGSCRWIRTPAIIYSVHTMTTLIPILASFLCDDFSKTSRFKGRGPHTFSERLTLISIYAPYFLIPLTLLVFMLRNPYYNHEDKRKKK
Method: For the standard equilibrium assay, the mixtures were incubated for 30 min. at room temperature, then filtered and the radioactivity determined as described above.

[1] = Table 7, Phenyl-(CH2)x -NH--(CH2)y -Phenyl, read-out: Ki
[2] = Table 6, read-out: 5HT-1A (nM) MEAN
[3] = Table 10, read-out: SIGMA-1 KI vs. 3H-PENTAZOCINE MEAN
[4] = Table 15, read-out: IC50 (nM) at sigma-1
[5] = less than about 0.1, see Table 10
[6] = Table 18, read-out: IC50 (nM) at sigma-2
[7] = Example 9, read-out: sigma-2 IC50
[8] = running text, Examples 5 and 6, read-out: sigma receptor Ki

T2 sequence (Q60492 whole entry): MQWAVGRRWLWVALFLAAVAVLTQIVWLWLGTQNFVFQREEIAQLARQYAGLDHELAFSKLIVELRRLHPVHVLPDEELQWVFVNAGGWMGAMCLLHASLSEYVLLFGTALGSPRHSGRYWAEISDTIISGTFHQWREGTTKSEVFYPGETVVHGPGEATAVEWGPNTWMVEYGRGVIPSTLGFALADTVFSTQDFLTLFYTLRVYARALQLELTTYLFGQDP

Row | Structure (SMILES) | Ratio 5-HT1A /σ (5-HT1A receptor; Table 5) | IC50 (5-HT1A receptor; Table 5, read-out: 5-HT1A IC50) [nM] | IC50 (PCP receptor) [nM] | IC50 (sigma receptor) [nM] | IC50 (5-HT1A receptor; [2]) [nM] | Ki (sigma-1 binding site; [3]) [nM] | S1/S2 Ratio (sigma-1 binding site; Table 10, sigma-1/sigma-2) | Ki (sigma-2 binding site) [nM] | other results
1 | FC(F)(F)c1cccc(N2CCN(CCCCc3ccccc3)CC2)c1 [Compound 47] | 1.6 | 9.23 | > 10000 | – | – | – | – | – | –
2 | FC(F)(F)c1cccc(N2CCN(CCc3ccccc3)CC2)c1 [Compound 37] | 2.6 | 20.3 | > 10000 | – | – | – | – | – | –
3 | c1ccc(CCCCCNCCCc2ccccc2)cc1 [Compound 111, N-(5-phenylpentyl)-3-phenylpropylamine] | – | – | – | 2.73 | 92.2 | 0.28 | 0.029 | 9.84 | Ki (sigma receptor; [1]): 1.8 nM; IC50 (sigma-1 binding site; [4]): 0.28 nM; IC50 ratio of sigma-1/sigma-2 (sigma-1 selective compounds) (sigma-1 binding site; [5]): less than 0.1; IC50 (sigma-2 binding site; [6]): 9.8 nM
4 | c1ccc(CCCCNCc2ccccc2)cc1 [Compound 75, N-(4-phenylbutyl)benzylamine] | – | – | – | 13.6 | 255 | 9.61 | 0.059 | 162 | Ki (sigma receptor; [1]): 13 nM; IC50 ratio of sigma-1/sigma-2 (sigma-1 selective compounds) (sigma-1 binding site; [5]): less than 0.1; IC50 (sigma-2 binding site; [7]): 160 nM
5 | c1ccc(CCCN2CCN(c3ccc4ccccc4c3)CC2)cc1 [Compound 50] | 94 | 282 | > 10000 | – | – | – | – | – | –
6 | c1ccc(CCCCCNCCc2ccccc2)cc1 [Compound 89, N-(5-phenylpentyl)phenethylamine] | – | – | – | 2.74 | 106 | – | – | 14.6 | Ki (sigma receptor; [1]): 2.4 nM; Ki (sigma receptor; [8]): 2.4 nM; IC50 (sigma-2 binding site; [6]): 15 nM
7 | c1ccc(CCCCCCCNCc2ccccc2)cc1 [Compound 90, N-(7-phenylheptyl)benzylamine] | – | – | – | 3.95 | 3210 | – | – | 38.5 | Ki (sigma receptor; [1]): 3.6 nM; IC50 ratio of sigma-1/sigma-2 (sigma-1 selective compounds) (sigma-1 binding site): less than 0.1; sigma-2/sigma-1 selectivity (sigma-1 binding site): 126; Ki (sigma-1 binding site; SIGMA-1 KI vs. 3H-P[…]): 2.3 nM; S1/S2 Ratio (sigma-1 binding site; guinea pig, microsomes): 0.060
8 | c1ccc(CCCCNCCc2ccccc2)cc1 [Compound 71, N-(4-phenylbutyl)phenethylamine] | – | – | – | 5.68 | 225 | 2.6 | 0.022 | 119 | Ki (sigma receptor; [1]): 5.5 nM; IC50 ratio of sigma-1/sigma-2 (sigma-1 selective compounds) (sigma-1 binding site; [5]): less than 0.1; IC50 (sigma-2 binding site; [7]): 120 nM
9 | c1ccc(CCCCN2CCN(Cc3ccccc3)CC2)cc1 [Compound 79, N-(4-phenylbutyl)-N'-benzylpiperazine] | – | – | – | 2.25 | 173 | 0.17 | 0.024 | 6.99 | IC50 ratio of sigma-1/sigma-2 (sigma-1 selective compounds) (sigma-1 binding site; [5]): less than 0.1
10 | CC(Cc1ccccc1)NCC1CC1 (centres unmarked) [Compound 24] | 1.4 | 956 | > 10000 | – | – | – | – | – | –
11 | CCCN1CCN(c2ccccc2)CC1 [Compound 64, N-Phenyl-N'-propylpiperazine] | – | – | – | – | 784 | 81.6 | – | 538 | –
12 | CCCN(C)CCCCCc1ccccc1 [Compound 112, N-methyl-N-propyl-5-phenylpentylamine] | – | – | – | 2.65 | 8240 | – | – | 40.5 | Ki (sigma receptor; running text, Examples 5 and 6, listed as N-methyl-N-propyl-5-phenylpentylamine, read-out: sigma receptor Ki): 2.2 nM; IC50 (sigma-1 binding site; Example 8, read-out: sigma-1 IC50, text): 0.29 nM; Ki (sigma-1 binding site; read-out: SIGMA-1 KI vs. 3H-P[…]): 0.29 nM; IC50 (sigma-2 binding site; [7]): 40 nM
13 | c1ccc(CCCN2CCC(c3ccccc3)CC2)cc1 [Compound 39] | 75 | 89.6 | > 10000 | – | – | – | – | – | –
14 | C[C@H](Cc1ccccc1)NCCC(=O)c1ccccc1 [Compound 9] | 2 | 122 | > 10000 | – | – | – | – | – | –
15 | c1ccc(CCCNC2Cc3ccccc3C2)cc1 [Compound 14] | 5.4 | 154 | > 10000 | – | – | – | – | – | –
16 | Clc1cccc(N2CCN(CCCc3ccccc3)CC2)c1 [Compound 33] | 2.6 | 51.6 | > 10000 | – | – | – | – | – | –
17 | C[C@@H](N)Cc1ccc([N+](=O)[O-])cc1 [Compound 30] | 2.6 | 55000 | > 10000 | – | – | – | – | – | –
18 | CC(NCCCc1ccccc1)C(=O)c1ccccc1 (centres unmarked) [Compound 13] | 2 | 288 | > 10000 | – | – | – | – | – | –
19 | c1ccc(CCCCCCCNCCc2ccccc2)cc1 [Compound 91, N-(7-phenylheptyl)phenethylamine] | – | – | – | 4.07 | 732 | 1.47 | – | 33.2 | Ki (sigma receptor; [1]): 4.1 nM; IC50 ratio of sigma-1/sigma-2 (sigma-1 selective compounds) (sigma-1 binding site): less than 0.1; S1/S2 Ratio (sigma-1 binding site; guinea pig, microsomes): 0.044; Ki (sigma-1 binding site; sigma-1 binding affinity): 1.5 nM
20 | C[C@@H](Cc1ccccc1)NCCCc1ccc2ccccc2c1 [Compound 42] | 110 | 572 | > 10000 | – | – | – | – | – | –
21 | c1ccc(CCCCCN2CCC(Cc3ccccc3)CC2)cc1 [Compound 117, N-(5-phenylpentyl)-4-benzylpiperidine] | – | – | – | 2.11 | 781 | 0.58 | 0.210 | 2.78 | –
22 | c1ccc(CCCCN2CCN(c3ccccc3)CC2)cc1 [Compound 48] | 2.3 | 6.3 | > 10000 | – | – | – | – | – | –
23 | C[C@@H](Cc1ccccc1)N(C)CCCc1ccccc1 [Compound 113, N-Methyl-N-(3-phenylpropyl)-1-phenylisopropylamine] | – | – | – | 2.22 | 2150 | 0.51 | 0.105 | 4.87 | IC50 ratio of sigma-1/sigma-2 (sigma-1 selective compounds) (sigma-1 binding site; [5]): less than 0.1
24 | CCOc1ccc(CC(C)NCCCc2ccccc2)cc1 (racemic) [Compound 83, N-(3-phenylpropyl)-1-(p-ethoxyphenyl)-2-propylamine] | – | – | – | 7.08 | 77.7 | 3.38 | 0.101 | 33.5 | IC50 (sigma-1 binding site; Table 12, read-out: IC50 (nM) at sigma-1): 3.4 nM; IC50 ratio of sigma-1/sigma-2 (sigma-1 selective compounds) (sigma-1 binding site; [5]): less than 0.1; IC50 (sigma-2 binding site; Table 17, read-out: IC50 (nM) at sigma-2): 34 nM
25 | c1ccc(CCCCCNCc2ccccc2)cc1 [Compound 77, N-(5-phenylpentyl)benzylamine] | – | – | – | 2.07 | 759 | 0.32 | 0.009 | 34.3 | Ki (sigma receptor; [1]): 2 nM; IC50 (sigma-1 binding site; [4]): 0.32 nM; IC50 ratio of sigma-1/sigma-2 (sigma-1 selective compounds) (sigma-1 binding site; [5]): less than 0.1; IC50 (sigma-2 binding site; [6]): 34 nM
26 | C[C@@H](N)Cc1ccccc1 [Compound 28] | – | – | > 10000 | – | – | – | – | – | –
27 | c1ccc2cc(CCCNCCCc3ccc4ccccc4c3)ccc2c1 [Compound 70, Di-[3-(2'-Naphthyl)propyl)amine] | – | – | – | 116 | 3890 | – | – | 10000 | –
28 | CN1CCN(CC/C=C\c2cccc(C(F)(F)F)c2)CC1 [Compound 105, N-(4-(3-trifluoromethyl)-3-(Z)-butenyl)-N-methylpiperazine] | – | – | – | 9.5 | 4960 | 1.5 | 0.008 | 177 | IC50 ratio of sigma-1/sigma-2 (sigma-1 selective compounds) (sigma-1 binding site; [5]): less than 0.1
29 | c1ccc(CCCCCNCCCCc2ccccc2)cc1 [Compound 76, N-(5-phenylpentyl)-(4-phenyl)butylamine] | – | – | – | 2.65 | 119 | – | – | 68 | Ki (sigma receptor; [1]): 2.5 nM; IC50 (sigma-1 binding site): 0.48 nM; IC50 ratio of sigma-1/sigma-2 (sigma-1 selective compounds) (sigma-1 binding site): less than 0.1; Ki (sigma-1 binding site; SIGMA-1 KI vs. 3H-P[…]): 0.48 nM; S1/S2 Ratio (sigma-1 binding site; guinea pig, microsomes): 0.007; IC50 (sigma-2 binding site; [6]): 48 nM
30 | c1ccc(CNCCCCCC2CCCCC2)cc1 [Compound 94, N-(5-cyclohexylpentyl)benzylamine] | – | – | – | 4.02 | 5550 | – | – | 43.6 | Ki (sigma receptor; Examples 5 and 6, listed as N-benzyl-(5-cyclohexyl)pentylamine, read-out: sigma receptor Ki): 1.3 nM; Ki (sigma receptor; [8]): 3.4 nM; IC50 (sigma-1 binding site): 0.81 nM; IC50 ratio of sigma-1/sigma-2 (sigma-1 selective compounds) (sigma-1 binding site): less than 0.1; Ki (sigma-1 binding site; SIGMA-1 KI vs. 3H-P[…]): 0.81 nM; S1/S2 Ratio (sigma-1 binding site; guinea pig, microsomes): 0.019
